Test results taken from publication PMC5951806, “Rapid labelling and covalent inhibition of intracellular native proteins using ligand-directed N-acyl-N-alkyl sulfonamide” (Nature Communications, 2018).

Columns and labels:
Assay in all cases: TMT LC-MSMS of 11-labelled proteins
Assay type in all cases: cell-based
[1] = molecular target: 2,4-dienoyl-CoA reductase, mitochondrial (DECR1) (Homo sapiens, UniProt Q16698)
[2] = molecular target: puromycin-sensitive aminopeptidase (NPEPPS) (Homo sapiens, UniProt P55786)
Prohibitin-2 (PHB2) = Prohibitin-2 (PHB2) (Homo sapiens, UniProt Q99623); details: SKBR3 cells; for Abundance Ratio: (11) / (DMSO): 11 0.5 µM 3 h vs DMSO; for Abundance Ratio: (11) / (11 with PU-H71): 11 0.5 µM 3 h vs with PU-H71 10 µM
[3] = molecular target: T1, Isoform 2 of Fructose-bisphosphate aldolase A (ALDOA) (Homo sapiens, UniProt P04075)
T1 sequence (P04075 2-364 limits assumed): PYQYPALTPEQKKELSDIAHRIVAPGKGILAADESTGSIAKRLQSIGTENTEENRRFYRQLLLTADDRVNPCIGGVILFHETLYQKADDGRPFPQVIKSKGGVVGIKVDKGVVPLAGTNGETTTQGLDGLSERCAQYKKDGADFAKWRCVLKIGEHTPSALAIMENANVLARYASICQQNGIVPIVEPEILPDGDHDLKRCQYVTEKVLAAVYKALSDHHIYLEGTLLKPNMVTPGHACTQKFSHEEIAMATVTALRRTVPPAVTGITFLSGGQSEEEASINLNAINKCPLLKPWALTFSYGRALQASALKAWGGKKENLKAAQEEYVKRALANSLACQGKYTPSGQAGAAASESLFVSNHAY

[4] = sheet Exp1, SKBR3 cells, 11 0.5 µM 3 h vs DMSO
[5] = sheet Exp1, SKBR3 cells, 11 0.5 µM 3 h vs with PU-H71 10 µM
[6] = sheet Merged, SKBR3 cells, 11 0.5 µM 3 h vs DMSO
[7] = sheet Merged, SKBR3 cells, 11 0.5 µM 3 h vs with PU-H71 10 µM

Chain of 2,4-dienoyl-CoA reductase, mitochondrial (DECR1) (Q16698 35-335): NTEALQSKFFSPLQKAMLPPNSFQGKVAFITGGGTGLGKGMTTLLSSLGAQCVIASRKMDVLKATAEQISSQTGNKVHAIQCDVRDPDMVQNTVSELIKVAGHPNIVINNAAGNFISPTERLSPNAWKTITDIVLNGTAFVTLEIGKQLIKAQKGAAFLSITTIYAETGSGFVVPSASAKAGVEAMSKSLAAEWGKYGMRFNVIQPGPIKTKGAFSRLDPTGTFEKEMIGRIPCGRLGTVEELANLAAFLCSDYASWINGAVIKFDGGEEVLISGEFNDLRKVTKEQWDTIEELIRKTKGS
Chain of puromycin-sensitive aminopeptidase (NPEPPS) (P55786 whole entry): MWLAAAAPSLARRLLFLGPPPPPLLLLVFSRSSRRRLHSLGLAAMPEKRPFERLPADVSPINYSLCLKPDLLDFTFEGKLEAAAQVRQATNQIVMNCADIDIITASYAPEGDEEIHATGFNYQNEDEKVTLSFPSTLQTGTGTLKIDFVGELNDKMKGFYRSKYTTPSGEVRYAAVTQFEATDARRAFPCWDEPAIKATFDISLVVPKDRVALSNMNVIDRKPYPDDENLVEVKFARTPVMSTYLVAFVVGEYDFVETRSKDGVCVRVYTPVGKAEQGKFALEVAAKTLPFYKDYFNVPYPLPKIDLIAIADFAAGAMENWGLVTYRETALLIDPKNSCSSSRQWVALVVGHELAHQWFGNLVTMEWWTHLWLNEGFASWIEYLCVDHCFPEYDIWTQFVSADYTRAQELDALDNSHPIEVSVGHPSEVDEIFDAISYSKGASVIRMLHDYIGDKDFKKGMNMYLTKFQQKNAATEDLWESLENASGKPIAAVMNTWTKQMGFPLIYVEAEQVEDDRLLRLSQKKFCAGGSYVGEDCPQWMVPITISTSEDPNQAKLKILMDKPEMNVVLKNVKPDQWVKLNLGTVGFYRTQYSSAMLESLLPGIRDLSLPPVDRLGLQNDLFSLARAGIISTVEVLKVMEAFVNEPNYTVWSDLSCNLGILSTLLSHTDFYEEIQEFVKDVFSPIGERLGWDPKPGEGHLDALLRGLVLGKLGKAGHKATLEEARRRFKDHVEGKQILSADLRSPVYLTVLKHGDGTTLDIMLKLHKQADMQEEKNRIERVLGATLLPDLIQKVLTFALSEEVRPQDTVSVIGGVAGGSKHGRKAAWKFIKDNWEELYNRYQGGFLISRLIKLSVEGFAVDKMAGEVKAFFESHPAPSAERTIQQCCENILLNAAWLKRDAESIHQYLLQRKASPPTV
Chain of Prohibitin-2 (PHB2) (Q99623 whole entry, canonical isoform): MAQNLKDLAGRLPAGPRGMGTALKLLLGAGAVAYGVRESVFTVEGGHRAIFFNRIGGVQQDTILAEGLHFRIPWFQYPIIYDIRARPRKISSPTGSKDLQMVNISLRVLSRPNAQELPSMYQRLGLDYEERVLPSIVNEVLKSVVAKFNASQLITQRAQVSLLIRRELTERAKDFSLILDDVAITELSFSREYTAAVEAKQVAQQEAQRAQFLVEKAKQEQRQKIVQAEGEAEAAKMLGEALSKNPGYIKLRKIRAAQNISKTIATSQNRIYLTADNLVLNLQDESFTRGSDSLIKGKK
Chain of Prohibitin-2 (PHB2) (P35232 whole entry partner, canonical isoform): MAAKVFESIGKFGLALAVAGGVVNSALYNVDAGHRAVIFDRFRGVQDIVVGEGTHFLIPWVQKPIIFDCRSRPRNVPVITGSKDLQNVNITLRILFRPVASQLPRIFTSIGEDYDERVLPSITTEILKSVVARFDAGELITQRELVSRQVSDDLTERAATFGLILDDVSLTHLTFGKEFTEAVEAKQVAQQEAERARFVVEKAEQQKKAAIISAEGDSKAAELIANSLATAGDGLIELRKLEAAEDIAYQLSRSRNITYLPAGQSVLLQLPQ

CC(=O)Oc1ccc2c(c1)Oc1cc(OC(C)=O)ccc1C21OC(=O)c2cc(C(=O)NCCOCCOCCNC(=O)CCCC(=O)N(CC#N)S(=O)(=O)c3ccc(C(=O)NCCCn4c(Sc5cc6c(cc5I)OCO6)nc5c(N)ncnc54)cc3)ccc21 [compound 11]
Abundance Ratio: (11) / (DMSO) [1, 4]: 2.538 | Abundance Ratio: (11) / (11 with PU-H71) [1, 5]: 0.793 | Abundance Ratio: (11) / (11 with PU-H71) ([1]; sheet Exp2, DECR1): 0.758 | Abundance Ratio: (11) / (DMSO) ([1]; sheet Exp2, DECR1): 1.823 | Abundances (Grouped): 11 ([1]; sheet Exp2, DECR1): 59.8 | Abundances (Grouped): 11 with PU-H71 ([1]; sheet Exp2, DECR1, with PU-H71): 78.9 | Abundance Ratio: (11) / (DMSO) [1, 6]: 2.151 | Abundance Ratio: (11) / (11 with PU-H71) [1, 7]: 0.775 | Abundance Ratio: (11) / (11 with PU-H71) ([2]; Exp3, NPEPPS): 0.586 | Abundance Ratio: (11) / (DMSO) ([2]; Exp3, NPEPPS): 3.067 | Abundances (Grouped): 11 ([2]; Exp3, NPEPPS): 616.5 | Abundances (Grouped): 11 with PU-H71 ([2]; Exp3, NPEPPS): 1052.4 | Abundance Ratio: (11) / (DMSO) [2, 4]: 3.569 | Abundance Ratio: (11) / (11 with PU-H71) [2, 5]: 0.575 | Abundance Ratio: (11) / (11 with PU-H71) ([2]; sheet Exp2, NPEPPS): 0.592 | Abundance Ratio: (11) / (DMSO) ([2]; sheet Exp2, NPEPPS): 3.192 | Abundances (Grouped): 11 ([2]; sheet Exp2, NPEPPS): 968.9 | Abundances (Grouped): 11 with PU-H71 ([2]; sheet Exp2, NPEPPS): 1636.1 | Abundance Ratio: (11) / (DMSO) [2, 6]: 3.569 | Abundance Ratio: (11) / (11 with PU-H71) [2, 7]: 0.575 | Abundance Ratio: (11) / (DMSO) (Prohibitin-2 (PHB2); sheet Exp1): 1.815 | Abundance Ratio: (11) / (11 with PU-H71) (Prohibitin-2 (PHB2); sheet Exp1): 0.795 | Abundance Ratio: (11) / (DMSO) (Prohibitin-2 (PHB2); sheet Merged): 1.815 | Abundance Ratio: (11) / (11 with PU-H71) (Prohibitin-2 (PHB2); sheet Merged): 0.795 | Abundance Ratio: (11) / (11 with PU-H71) ([3]; Exp3, ALDOA): 0.706 | Abundance Ratio: (11) / (DMSO) ([3]; Exp3, ALDOA): 3.817 | Abundances (Grouped): 11 ([3]; Exp3, ALDOA): 494.7 | Abundances (Grouped): 11 with PU-H71 ([3]; Exp3, ALDOA): 700.9 | Abundance Ratio: (11) / (DMSO) [3, 4]: 4.85 | Abundance Ratio: (11) / (11 with PU-H71) [3, 5]: 0.675 | Abundance Ratio: (11) / (11 with PU-H71) ([3]; sheet Exp2, ALDOA): 0.724 | Abundance Ratio: (11) / (DMSO) ([3]; sheet Exp2, ALDOA): 4.699 | Abundances (Grouped): 11 ([3]; sheet Exp2, ALDOA): 363.2 | Abundances (Grouped): 11 with PU-H71 ([3]; sheet Exp2, ALDOA): 502 | Abundance Ratio: (11) / (DMSO) [3, 6]: 4.85 | Abundance Ratio: (11) / (11 with PU-H71) [3, 7]: 0.675
